The record followed here is PubChem BioAssay (NCI).

Test systems include HCT-15 colon; UACC-62 melanoma; K-562 leukemia; HCT-116 colon; HT29 colon; SF-268 CNS; OVCAR-3 ovarian; MOLT-4 leukemia; COLO 205 colon; MALME-3M melanoma.
What all share (experiment): growth of human tumour cells (NCI), 48 h

Structures are written as SMILES.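 Values below derive from 48-hour exposures of cells grown in 96-well plates, with endpoints linearly interpolated between the two concentrations bracketing the appropriate inhibition level. Here, GI50 denotes the concentration required for 50% inhibition of growth. TGI: concentration producing complete growth inhibition.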

Take `O=C(CN1CCCCC1)N1CCc2c([nH]c3ccccc23)C1c1cccnc1` (centres undefined): the TGI in the assay on HCT-15 colon, in the assay with UACC-62 melanoma, in the assay on K-562 leukemia, in the assay with HCT-116 colon, in the assay with HT29 colon and in the assay on SF-268 CNS was > 100 µM each time. Besides, the TGI with OVCAR-3 ovarian and in the assay with MOLT-4 leukemia was > 100 µM throughout.

In the case of `Cc1ccc(N(CSc2ccc(Cl)cc2)CSc2ccc(Cl)cc2)cc1`, the GI50 in the assay with HCT-15 colon is 2.12 µM; in the assay with UACC-62 melanoma, 0.818 µM; with COLO 205 colon, 1.84 µM; in the assay with MALME-3M melanoma, 3.65 µM; with HCT-116 colon, 1.52 µM; in the assay on HT29 colon, 1.85 µM. For the same molecule, the GI50 was 0.909 µM with SF-268 CNS, 2.75 µM with OVCAR-3 ovarian and 0.381 µM in the assay on MOLT-4 leukemia. Also, the TGI in the assay with HCT-15 colon was 15.3 µM; in the assay with UACC-62 melanoma, 2.91 µM; in the assay on COLO 205 colon, 3.38 µM; in the assay with MALME-3M melanoma, 18.4 µM; in the assay on HCT-116 colon, 10.9 µM; in the assay on HT29 colon it was 24.1 µM. For the same molecule, the values for the TGI in the assay on SF-268 CNS, with OVCAR-3 ovarian and in the assay on MOLT-4 leukemia were 12.4 µM, 11.5 µM and 2.63 µM, respectively.

For `CCN(CC)CC(C)(C)C(=O)/C=C/c1ccc(Cl)c(Cl)c1`, the GI50 was 1.42 µM with HCT-15 colon; 1.66 µM in the assay with UACC-62 melanoma; 1.7 µM in the assay on COLO 205 colon; 1.1 µM with K-562 leukemia; 1.8 µM with MALME-3M melanoma; 1.79 µM with HCT-116 colon. The GI50 with SF-268 CNS is 1.56 µM; with OVCAR-3 ovarian, 1.53 µM; in the assay on MOLT-4 leukemia, 2.37 µM. The TGI with HCT-15 colon amounted to 2.92 µM; in the assay on UACC-62 melanoma it was 3.59 µM; with COLO 205 colon it was 3.34 µM; with K-562 leukemia, 6.29 µM; in the assay on MALME-3M melanoma it was 3.61 µM; in the assay with HCT-116 colon, 3.2 µM. Also, the TGI is 3.22 µM with SF-268 CNS, 2.88 µM in the assay on OVCAR-3 ovarian and 8.11 µM in the assay with MOLT-4 leukemia.

On to `c1ccc2c3ccn4cc5c(cc4c-3nc2c1)CCCC5`, for which the GI50 with HCT-15 colon was 24.1 µM; with UACC-62 melanoma, 3.25 µM; with COLO 205 colon, 2.37 µM; in the assay with K-562 leukemia, 1.95 µM; with HCT-116 colon, 2.72 µM; in the assay with HT29 colon it was 2.55 µM. The GI50 with OVCAR-3 ovarian is 3.31 µM; with MOLT-4 leukemia, 2.45 µM. Besides, the TGI is > 100 µM in the assay with HCT-15 colon; 14.4 µM in the assay with UACC-62 melanoma; 6.16 µM with COLO 205 colon; 12.6 µM with K-562 leukemia; 8.94 µM in the assay with HCT-116 colon; 13 µM in the assay on HT29 colon. For the same molecule, the TGI in the assay with SF-268 CNS is 14.4 µM; in the assay on OVCAR-3 ovarian, 8.84 µM; in the assay on MOLT-4 leukemia, 12.5 µM.

In the case of `O=C(CCCN1CC=C(n2c(=O)[nH]c3ccccc32)CC1)c1ccc(F)cc1`, the GI50 with HCT-15 colon was 37.4 µM; with UACC-62 melanoma it was 42.7 µM; with COLO 205 colon, 25 µM; in the assay with K-562 leukemia it was 29.3 µM; in the assay with MALME-3M melanoma, 38.9 µM; in the assay with HCT-116 colon it was 28.5 µM. Moreover, the GI50 in the assay with HT29 colon was 27.6 µM; in the assay with OVCAR-3 ovarian, 31.4 µM; in the assay with MOLT-4 leukemia, 30.5 µM. In addition, the TGI was > 100 µM with HCT-15 colon; > 100 µM in the assay with UACC-62 melanoma; 75.5 µM in the assay with COLO 205 colon; > 100 µM in the assay on K-562 leukemia; > 100 µM in the assay with MALME-3M melanoma; > 100 µM in the assay on HCT-116 colon. Besides, the TGI in the assay with HT29 colon was > 100 µM; in the assay with OVCAR-3 ovarian it was > 100 µM; in the assay with MOLT-4 leukemia it was 91.8 µM.

Turning to `COc1ccc(C2C(C#N)=C(N)OC3=C2COc2ccc(F)cc23)cc1OC` (centres undefined), the GI50 is 18.8 µM in the assay on HCT-15 colon; 15.1 µM in the assay on UACC-62 melanoma; 19.1 µM in the assay with COLO 205 colon; 31.8 µM in the assay with K-562 leukemia; 12 µM in the assay with HCT-116 colon; 33.3 µM in the assay on SF-268 CNS. The GI50 is 17.5 µM with OVCAR-3 ovarian and 49.5 µM with MOLT-4 leukemia. Further, the TGI in the assay on HCT-15 colon is 76.5 µM; in the assay on UACC-62 melanoma, 44.3 µM; in the assay on COLO 205 colon, > 100 µM; with K-562 leukemia, > 100 µM; with HCT-116 colon, 36.1 µM; with SF-268 CNS, > 100 µM. For the same molecule, the TGI in the assay with OVCAR-3 ovarian was 43.5 µM; in the assay on MOLT-4 leukemia, > 100 µM.

Consider `CCOC(=O)c1[nH]c(COC(C)=O)c(CCCOC(C)=O)c1CCCOC(C)=O`, for which the TGI in the assay on HCT-15 colon, in the assay with COLO 205 colon, in the assay on K-562 leukemia, with MALME-3M melanoma, with HCT-116 colon and in the assay on HT29 colon was > 100 µM in each case. Further, the TGI in the assay on SF-268 CNS, in the assay with OVCAR-3 ovarian and with MOLT-4 leukemia was > 100 µM each time.

Regarding `CCOC(=O)C1N(S(=O)(=O)c2ccc(C)cc2)CCC12C(c1ccc(OC)cc1)NC1CCCCC12` (centres undefined), the TGI in the assay with HCT-15 colon, in the assay on UACC-62 melanoma, in the assay with COLO 205 colon, in the assay with K-562 leukemia, with MALME-3M melanoma and in the assay with HCT-116 colon was > 100 µM each time. The TGI with HT29 colon, in the assay on SF-268 CNS and in the assay on OVCAR-3 ovarian was > 100 µM each time.

For the molecule `CC1=C(C(=O)Nc2c(C)cccc2C)C(c2ccccc2Cl)C(C(=O)Nc2c(C)cccc2C)=C(C)N1`, the TGI with COLO 205 colon, with K-562 leukemia, in the assay with MALME-3M melanoma, with HT29 colon, with SF-268 CNS and in the assay with OVCAR-3 ovarian was > 100 µM in each case. In addition, the TGI in the assay with MOLT-4 leukemia was > 100 µM.

In the case of `C#CC(=O)Nc1cccc(Nc2nc3c(c(NCc4ccccc4)n2)CCCC3)c1`, the GI50 in the assay on HCT-15 colon was 0.231 µM; in the assay on UACC-62 melanoma, 0.0851 µM; in the assay with COLO 205 colon, 0.401 µM; in the assay with K-562 leukemia it was 1.39 µM; in the assay on HCT-116 colon, 0.12 µM; in the assay with SF-268 CNS, 0.0203 µM. In the assay with OVCAR-3 ovarian, the GI50 is 0.042 µM. Also, the TGI with HCT-15 colon is 1.14 µM; in the assay with UACC-62 melanoma, 0.279 µM; in the assay with COLO 205 colon, 1.14 µM; with K-562 leukemia it was 5.96 µM; in the assay on HCT-116 colon, 0.291 µM; with SF-268 CNS it was 0.0958 µM. This molecule also registered a TGI in the assay with OVCAR-3 ovarian of 0.175 µM.
